Reference: article PMC8086025, “A benzopyran with antiarrhythmic activity is an inhibitor of Kir3.1-containing potassium channels” (The Journal of Biological Chemistry, 2021)
“And” between values parts separate entries of the source, which are not always exact repeats. Equal values may be shown once. “Also recorded” adds a separate entry of the source. Read-outs that look alike come from different tables or passages of the source.

Columns and labels:
[1] = target: Kir3.4/4(N179D) channel mutant (Homo sapiens, UniProt P48544, N179D); assay type: cell-based; conditions: 1 μM, TEVC
Kir3.4/4(N179D) channel mutant, sequence (P48544 whole entry, stated change not applied): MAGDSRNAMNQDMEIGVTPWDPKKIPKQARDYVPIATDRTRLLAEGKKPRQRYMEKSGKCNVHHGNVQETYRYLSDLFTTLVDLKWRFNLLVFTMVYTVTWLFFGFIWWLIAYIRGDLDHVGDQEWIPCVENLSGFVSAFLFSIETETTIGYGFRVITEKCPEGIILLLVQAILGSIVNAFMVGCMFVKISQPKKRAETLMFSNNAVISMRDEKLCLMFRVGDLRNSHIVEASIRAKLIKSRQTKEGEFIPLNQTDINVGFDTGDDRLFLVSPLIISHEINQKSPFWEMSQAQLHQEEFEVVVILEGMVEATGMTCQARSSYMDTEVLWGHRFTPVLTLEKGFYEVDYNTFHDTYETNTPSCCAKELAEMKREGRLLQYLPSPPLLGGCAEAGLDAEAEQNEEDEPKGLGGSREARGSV
Kir3.4/4(N179D) channel mutant, sequence (P48544 whole entry N179D): as the sequence (P48544 whole entry, stated change not applied) above, with N179D counted along it

[2] = target: T1, Kir3.1(E141A)/4 (Homo sapiens, UniProt P48544+P48549, E141A); test: TEVC in Xenopus oocytes, Kir3.1(E141A)/4; assay type: cell-based; conditions: 1 μM
T1 construct: expressed in transfected cells; host or cells: Xenopus laevis oocytes (cRNA injection)
T1 sequence (P48549 whole entry E141A): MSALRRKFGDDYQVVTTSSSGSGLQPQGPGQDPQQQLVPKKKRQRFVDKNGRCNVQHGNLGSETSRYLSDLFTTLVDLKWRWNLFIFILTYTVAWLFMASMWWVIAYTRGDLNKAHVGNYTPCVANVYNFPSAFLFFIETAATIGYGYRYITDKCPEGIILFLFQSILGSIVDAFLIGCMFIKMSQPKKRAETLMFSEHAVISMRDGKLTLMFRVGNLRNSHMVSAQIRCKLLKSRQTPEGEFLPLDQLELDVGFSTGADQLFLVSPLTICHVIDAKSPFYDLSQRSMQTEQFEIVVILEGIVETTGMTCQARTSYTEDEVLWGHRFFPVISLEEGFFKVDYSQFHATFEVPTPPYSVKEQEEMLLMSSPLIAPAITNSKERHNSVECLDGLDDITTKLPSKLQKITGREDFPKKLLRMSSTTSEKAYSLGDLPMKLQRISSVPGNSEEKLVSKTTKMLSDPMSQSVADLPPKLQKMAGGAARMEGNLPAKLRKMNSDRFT
T1 sequence (P48544 whole entry): as the sequence (P48544 whole entry, stated change not applied) above

[3] = target: Kir3.1(T143A)/4 (Homo sapiens, UniProt P48544+P48549, T143A); assay type: cell-based; conditions: 1 μM, TEVC
Kir3.1(T143A)/4, sequence (P48544 whole entry): as the sequence (P48544 whole entry, stated change not applied) above
Kir3.1(T143A)/4, sequence (P48549 whole entry T143A): as the sequence (P48549 whole entry E141A) above, with A141E, T143A counted along it

[4] = tested on: Kir2.1, Kir2.3, Kir3.1∗, Kir3.2∗, Kir3.4∗, Kir3.1∗/Kir3.2 and Kir3.1∗/Kir3.4; test: TEVC in Xenopus oocytes, selectivity over other Kir channels; assay type: cell-based; conditions: 1 μM
[5] = target: T2, Kir2.1 (Homo sapiens, UniProt P63252); test: Cloned cardiac ion channel manual patch clamp, Kir2.1; assay type: cell-based; conditions: MPC (manual patch clamp)
T2 construct: host or cells: HEK293
T2 sequence (P63252 whole entry): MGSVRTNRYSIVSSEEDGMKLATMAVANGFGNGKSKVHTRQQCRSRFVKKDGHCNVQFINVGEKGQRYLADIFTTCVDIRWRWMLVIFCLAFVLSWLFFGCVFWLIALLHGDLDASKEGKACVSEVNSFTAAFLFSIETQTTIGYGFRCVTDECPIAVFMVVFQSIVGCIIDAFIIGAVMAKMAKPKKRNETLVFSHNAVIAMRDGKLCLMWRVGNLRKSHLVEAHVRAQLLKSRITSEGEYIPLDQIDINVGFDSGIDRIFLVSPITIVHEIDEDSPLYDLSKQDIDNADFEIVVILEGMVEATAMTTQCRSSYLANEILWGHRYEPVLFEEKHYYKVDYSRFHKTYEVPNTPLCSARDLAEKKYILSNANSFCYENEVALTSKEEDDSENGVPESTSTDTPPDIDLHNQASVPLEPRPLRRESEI

[6] = target: Kir6.1/SUR2B (Homo sapiens, UniProt O60706+Q15842); test: Cloned cardiac ion channel electrophysiology, Kir6.1/SUR2B; assay type: cell-based
Method: page 24: APPENDIX 4- EQUATIONS %Inhibition = (1 - IIntervention/IControl) × 100 Equation 1 - Percentage Inhibition Inhibition of current (or leak-subtracted current) was calculated from steady-state current recorded in the absence (IControl) and presence of test-article (IIntervention). […]

[7] = target: Kv1.5 (Homo sapiens, UniProt P22460); test: Cloned cardiac ion channel manual patch clamp, Kv1.5; assay type: cell-based; conditions: MPC (manual patch clamp)
Kv1.5, sequence (P22460 whole entry): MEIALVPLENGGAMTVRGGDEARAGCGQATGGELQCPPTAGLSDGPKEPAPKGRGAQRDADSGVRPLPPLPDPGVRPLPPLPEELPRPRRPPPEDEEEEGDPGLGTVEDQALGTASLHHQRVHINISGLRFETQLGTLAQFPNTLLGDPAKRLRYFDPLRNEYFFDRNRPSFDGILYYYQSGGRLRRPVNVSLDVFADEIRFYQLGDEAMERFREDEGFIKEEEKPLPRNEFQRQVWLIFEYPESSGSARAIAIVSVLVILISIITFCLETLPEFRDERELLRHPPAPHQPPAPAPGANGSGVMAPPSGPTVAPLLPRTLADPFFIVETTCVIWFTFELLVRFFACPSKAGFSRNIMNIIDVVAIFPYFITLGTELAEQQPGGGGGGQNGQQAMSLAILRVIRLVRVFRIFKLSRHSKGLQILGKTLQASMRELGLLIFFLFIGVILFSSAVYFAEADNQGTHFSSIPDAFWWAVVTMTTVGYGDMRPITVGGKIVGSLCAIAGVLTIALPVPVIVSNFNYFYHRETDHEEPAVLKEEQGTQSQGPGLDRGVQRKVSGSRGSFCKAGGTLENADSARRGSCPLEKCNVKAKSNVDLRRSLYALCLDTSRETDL
Method: For the data shown in Table S6, HEK293 cells expressing Kir3.1/4, Kir6.2/SUR2A (provided by Dr Andrew Tinker), Kir3.4, Kir2.1, and CHO cell lines stably expressing hERG KV1.5, KV4.3, NaV1.5 were maintained in media containing 10% FCS and appropriate selection antibiotic. Cells were grown either in suspension or in T-flasks and routinely passaged. Cells for patch clamping experiments were plated onto glass cover slips prior to use. Cells for automated patch clamping experiments were freshly prepared on each experimental day.
Standard giga-seal whole-cell patch-clamp techniques were performed at room temperature using glass pipettes (2–5 MΩ). HEKA EPC9/10 amplifiers and Pulse software were used for data acquisition. Series resistance was compensated by >70%. Experimental solutions are given under Supporting information. […]
Ionic current recordings were analyzed using HEKA software. […]
Inhibition of current (or leak-subtracted current) was calculated from steady-state current recorded in the absence (IControl) and presence of test-article (IIntervention). […]
Concentration-response data were fitted with a sigmoidal function of the form above, where YMin and YMax represent maximum and minimum current inhibition which were constrained to 100 and 0 respectively and x is the Log[DRUG (M)] based on GraphPad Prism analysis. % inhibition was calculated as in Equation 1. […]

[8] = target: Kv1.7 (Homo sapiens, UniProt Q96RP8); test: Cloned cardiac ion channel electrophysiology, Kv1.7; assay type: cell-based
Kv1.7, sequence (Q96RP8 whole entry): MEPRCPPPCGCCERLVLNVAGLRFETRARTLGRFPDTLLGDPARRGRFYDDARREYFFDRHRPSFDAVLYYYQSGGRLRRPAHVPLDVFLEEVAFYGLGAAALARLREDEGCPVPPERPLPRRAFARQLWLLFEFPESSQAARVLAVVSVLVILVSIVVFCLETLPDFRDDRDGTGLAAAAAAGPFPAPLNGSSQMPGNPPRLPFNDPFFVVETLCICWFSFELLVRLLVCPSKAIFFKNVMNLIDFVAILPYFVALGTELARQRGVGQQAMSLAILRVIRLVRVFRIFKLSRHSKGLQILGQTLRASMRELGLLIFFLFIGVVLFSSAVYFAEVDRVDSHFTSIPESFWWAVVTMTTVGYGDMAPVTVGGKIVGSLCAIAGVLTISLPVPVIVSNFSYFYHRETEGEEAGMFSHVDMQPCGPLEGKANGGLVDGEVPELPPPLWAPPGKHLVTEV
Method: Table S7-1. Table detailing composition (in mM) of external experimental assay solutions […]
%Inhibition = (1 − IIntervention/IControl) × 100
Equation 1 – Percentage Inhibition
Inhibition of current (or leak-subtracted current) was calculated from steady-state current recorded in the absence (IControl) and presence of test-article (IIntervention).
Equation 2 – Concentration-response curve
Concentration-response data were fitted with a sigmoidal function of the form above, where YMin and YMax represent maximum and minimum current inhibition which were constrained to 100 and 0 respectively and x is the Log[DRUG (M)] based on GraphPad Prism analysis. % inhibition was calculated as in Equation 1.
(also on this page, place not known: […] […] + −+= − HnxLogIC MinMax Min YYYInhibition )( 50101 )(% inhi bition Log[ DRUG analysis .) […]

[9] = tested on: IKACh; test: In vivo ECG, carbachol-induced heart rate slowing in anesthetized mice; conditions: 40 μl of 240 μM via jugular vein
Method: We tested the in vivo effects of BP-G1 versus those of BP-G1(SR) on heart rate in anesthetized adult mice (Fig. 8). ECG was continuously recorded. Panel A is the ECG showing that after carbachol (300 μl of 200 μM) was administered, i.p. (red mark), the heart decelerated, with a visible RR prolongation. About 10 min after carbachol injection, BP-G1 was delivered via the jugular vein (40 μl of 240 μM) (green mark). Within 5 min, there was a reversal of carbachol’s effects on the heart rate. Panel B is a control mouse showing heart rate slowing after carbachol administration (red mark).
Mice were anesthetized (1.5% isofluorane), and a 1.2 French octapolar catheter (Millar) with a drug delivery port was placed transvenously, through the jugular vein, into the right atrium. Continuous ECG was recorded using the Animal Bio Amp and PowerLab 4/35 Advanced Instruments apparatus. […] Saline control at the same volume was performed. Results are averages ±SD.

[10] = Plasma protein binding, rat; assay type: in vitro ADME; conditions: read-out: Rat Plasma Protein Binding (PPB) (converted)
[11] = Rat PK, IV/PO cross over and brain penetration; assay type: in vivo
[12] = tested on: sigma (non-selective); test: Radioligand binding, [3H]DTG, Jurkat cells (endogenous); conditions: listed as Benzopyran-G1
[13] = tested on: Ca; test: Radioligand binding; conditions: listed as Benzopyran-G1
[14] = target: hERG channel (Homo sapiens, UniProt Q12809); test: hERG currents in Xenopus oocytes, TEVC
hERG channel, sequence (Q12809 whole entry): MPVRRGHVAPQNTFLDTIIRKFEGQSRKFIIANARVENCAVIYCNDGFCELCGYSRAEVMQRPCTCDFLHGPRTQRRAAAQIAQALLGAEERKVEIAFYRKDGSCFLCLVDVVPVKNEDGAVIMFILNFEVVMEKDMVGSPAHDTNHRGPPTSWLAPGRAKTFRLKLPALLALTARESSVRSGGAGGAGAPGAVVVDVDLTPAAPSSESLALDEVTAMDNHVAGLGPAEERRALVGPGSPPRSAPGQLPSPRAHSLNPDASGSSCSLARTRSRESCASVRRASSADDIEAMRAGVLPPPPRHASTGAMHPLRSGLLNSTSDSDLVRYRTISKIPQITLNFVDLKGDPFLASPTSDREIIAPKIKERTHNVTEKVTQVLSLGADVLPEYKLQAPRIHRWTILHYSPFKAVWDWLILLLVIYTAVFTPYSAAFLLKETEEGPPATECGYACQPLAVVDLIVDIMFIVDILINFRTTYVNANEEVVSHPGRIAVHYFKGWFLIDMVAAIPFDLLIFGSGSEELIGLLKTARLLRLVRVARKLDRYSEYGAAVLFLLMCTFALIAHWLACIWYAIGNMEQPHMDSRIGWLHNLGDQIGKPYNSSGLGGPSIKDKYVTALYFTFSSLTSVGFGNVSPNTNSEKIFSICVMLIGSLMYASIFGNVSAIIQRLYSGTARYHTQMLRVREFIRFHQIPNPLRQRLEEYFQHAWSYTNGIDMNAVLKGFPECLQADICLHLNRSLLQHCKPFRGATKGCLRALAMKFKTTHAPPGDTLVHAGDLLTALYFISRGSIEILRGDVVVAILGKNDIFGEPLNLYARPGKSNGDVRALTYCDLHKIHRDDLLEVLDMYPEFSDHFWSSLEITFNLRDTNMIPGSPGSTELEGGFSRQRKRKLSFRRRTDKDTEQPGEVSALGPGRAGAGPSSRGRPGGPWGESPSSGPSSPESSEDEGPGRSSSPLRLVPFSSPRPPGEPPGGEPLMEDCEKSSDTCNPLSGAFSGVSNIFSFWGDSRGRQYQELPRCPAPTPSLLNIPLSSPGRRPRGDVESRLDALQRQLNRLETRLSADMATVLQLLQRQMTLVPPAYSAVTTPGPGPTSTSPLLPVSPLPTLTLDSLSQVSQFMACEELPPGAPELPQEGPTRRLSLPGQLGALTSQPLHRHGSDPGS

With `Cc1cc(CO)nc2cc3c(cc12)OC(C)(C)[C@H](O)[C@H]3NCCc1ccccc1` [BP-G1, (3R,4S)-7-(hydroxymethyl)-2,2,9-trimethyl-4-(2-phenylethylamino)-3,4-dihydropyrano[2,3-g]quinolin-3-ol] the “inhibition of Kir3.4/4(N179D)” value [1] was “did not inhibit”, the “current block, Kir3.1(E141A)/4” value [2] was 25% and the “block of Kir3.1(T143A)/4” value [3] was “no significant reduction in BP-G1 block”. The “selectivity for Kir3.1-containing heteromers over other Kir channels” value [4] was “strong inhibitory selectivity”, the IC50 [5] was over 10 µM and the IC50 [6] was 9.9 µM. The IC50 [7] was 16.3 µM, the IC50 [8] was 7 µM and the “time to reversal of carbachol’s effects on the heart rate” value [9] was at most 5 min. The “RR interval 5 min after compound, given about 10 min after carbachol” value ([9]; anesthetized mice, mean ± SD, N = 3) was 155.4 ± 5.5 ms, the fraction unbound [10] was 0.11 and the Co ([11]; 1mg/kg iv.) was 3941 ng/mL. For the same compound, the CL ([11]; 5mg/kg po.) was 3.3 mL/min/kg, the Kp ([11]; rat, brain and plasma, 5mg/kg po., read-out: CNS Penetration (B:P)) was 0.2 and the Vd ([11]; rat, in vivo, 1mg/kg iv.) was 1 L/kg. It also gave a clearance ([11]; rat, in vivo, 1mg/kg iv.) of 3.39 mL/min/kg, a bioavailability ([11]; rat, in vivo, 1mg/kg iv. / 5mg/kg po., read-out: Oral bioavailability F%) of 32% and an AUC(0-inf) ([11]; rat, in vivo, 1mg/kg iv., read-out: Rat iv. AUC∞) of 4950 ng·h/mL. For the same compound, the Cmax ([11]; rat, in vivo, 5mg/kg po.) was 1190 ng/mL, the AUC(0-t) ([11]; rat, in vivo, 5mg/kg po., read-out: Rat p.o. AUCt) was 6420 ng·h/mL and the AUC(0-inf) ([11]; rat, in vivo, 5mg/kg po., read-out: Rat p.o. AUC∞) was 16800 ng·h/mL. For the same compound, the half-life ([11]; rat, in vivo, listed under 5mg/kg po.) was 12.2 h, the “% Specific Binding at 10 µM” value [12] was 40.267% and < 50% and the “% Specific Binding at 10 µM” value [13] was 42.600% and < 50%. The IC50 [14] was over 5 µM and the “inhibitory activity on hERG current” value ([14]; up to 5 μM, Xenopus oocytes) was “did not show inhibitory activity; also recorded: not inhibited”.
